Laboratory results as given in PMC4999056 (European Journal of Medicinal Chemistry, 2016).
Read-outs that look alike come from different tables or passages of the source.

Assays:
DENV (serotype 2) = experiment: microbe, parasite or virus in culture; type: cell-based, Dengue virus serotype 2; conditions: for EC50: read-out: Dengue EC50
YFV = experiment: microbe, parasite or virus in culture; type: cell-based, yellow fever virus; conditions: for EC50: read-out: Yellow fever EC50
in vitro [1] = experiment: in vitro
in vitro [2] = conditions: chlorocebus aethiops

SMILES	Dengue SI (DENV (serotype 2))	EC50 (DENV (serotype 2); Dengue virus, Vero B) [µM]	Yellow fever SI (YFV)	EC50 (YFV; Yellow fever virus, Vero B) [µM]	CC50 (in vitro [1]; chlorocebus aethiops) [µM]	CC50 (in vitro [2]; Yellow fever CC50) [µM]	EC50 (DENV (serotype 2)) [µM]	CC50 at 168 h (in vitro [1]; chlorocebus aethiops) [µM]	CC50 (in vitro [1]; green monkey) [µM]	CC50 at 168 h (in vitro [2]; Yellow fever CC50) [µM]	EC50 (YFV) [µM]	CC50 (in vitro [2]; Yellow fever CC50 (visual)) [µM]	fold increase of DENV inhibitory properties (DENV (serotype 2)) [fold]	fold reduction in inhibitory properties against dengue virus (DENV (serotype 2)) [fold]	fold increase in DENV activity for the methyl congener (DENV (serotype 2)) [fold]
O=C(NCc1ccc(-c2ccsc2)cc1)c1nccnc1C(=O)Nc1ccc(F)cc1 [6k, N^2-(4-fluorophenyl)-N^3-(4-(thiophen-3-yl)benzyl)pyrazine-2,3-dicarboxamide]	1	> 116	>6	18.5	> 116	> 116	–	–	–	–	–	–	–	–	–
Cc1ccc(NC(=O)c2ccccc2C(=O)Nc2ccc(C)cc2-c2ccsc2)cc1 [7g, N^1-(4-methyl-2-(thiophen-3-yl)phenyl)-N^2-(p-tolyl)phthalamide]	–	0.5	>60	1.9	–	> 117	0.7	12.9	> 116	–	–	–	–	–	–
Cc1ccc(NC(=O)c2nccnc2C(=O)Nc2ccc(F)cc2)c(-c2ccsc2)c1 [6g, N^2-(4-fluorophenyl)-N^3-(4-methyl-2-(thiophen-3-yl)phenyl)pyrazine-2,3-dicarboxamide]	>55	2.1	>11	10.6	> 116	> 116	–	–	–	–	–	–	–	–	–
Cc1ccc(NC(=O)c2ccccc2C(=O)Nc2ccc(C)cc2-c2ccc(C)s2)cc1 [7e, N^1-(4-methyl-2-(5-methylthiophen-2-yl)phenyl)-N^2-(p-tolyl)phthalamide]	>57	2	3.4	6.8	> 114	–	–	–	–	23	–	–	–	–	–
Cc1ccc(NC(=O)c2nccnc2C(=O)NCc2ccccc2-c2ccsc2)cc1 [6j, N^2-(2-(thiophen-3-yl)benzyl)-N^3-(p-tolyl)pyrazine-2,3-dicarboxamide]	1	> 48	14	–	–	–	–	48	–	75	5.4	–	–	–	–
Cc1ccc(NC(=O)c2ccccc2NC(=O)c2ccc(F)cc2)c(-c2cccnc2)c1 [13d, 2-(4-fluorobenzamido)-N-(4-methyl-2-(pyridin-3-yl)phenyl)benzamide]	>5	23	1	> 117	> 117	> 50	–	–	–	–	–	39	–	–	–
Cc1ccc(NC(=O)c2nccnc2C(=O)Nc2ccc(C)cc2-c2cc(C)n[nH]2)cc1 [6b, N^2-(4-methyl-2-(3-methyl-1H-pyrazol-5-yl)phenyl)-N^3-(p-tolyl)pyrazine-2,3-dicarboxamide]	>235	0.5	–	–	> 117	–	–	–	> 116	–	–	–	50	–	–
Cc1ccc(NC(=O)c2ccccc2C(=O)Nc2ccc(F)cc2)c(-c2ccc(C)s2)c1 [7f, N^1-(4-fluorophenyl)-N^2-(4-methyl-2-(5-methylthiophen-2-yl)phenyl)phthalamide]	>39	2.9	>17	6.8	> 113	> 113	–	–	–	–	–	–	–	–	–
Cc1ccc(NC(=O)c2ccccc2C(=O)Nc2ccc(C)cc2-c2cccs2)cc1 [7d, N^1-(4-methyl-2-(thiophen-2-yl)phenyl)-N^2-(p-tolyl)phthalamide]	>8	14	>1.6	23.2	> 117	> 37	–	–	–	–	–	–	–	–	–
O=C(NCc1ccccc1-c1ccsc1)c1nccnc1C(=O)Nc1ccc(F)cc1 [6i, N^2-(4-fluorophenyl)-N^3-(2-(thiophen-3-yl)benzyl)pyrazine-2,3-dicarboxamide]	2	24	19	3.9	–	–	–	52	–	76	–	–	–	–	–
Cc1ccc(NC(=O)c2nccnc2C(=O)Nc2ccc(F)cc2)c(-c2cc(C)n[nH]2)c1 [6a, N^2-(4-fluorophenyl)-N^3-(4-methyl-2-(3-methyl-1H-pyrazol-5-yl)phenyl) pyrazine-2,3 dicarboxamide]	>4	26.5	–	–	> 116	–	–	–	–	–	–	–	–	10	–
Cc1ccc(NC(=O)c2nccnc2C(=O)NCc2ccc(-c3ccsc3)cc2)cc1 [6l, N^2-(4-(thiophen-3-yl)benzyl)-N^3-(p-tolyl)pyrazine-2,3-dicarboxamide]	>8	14	>5	21.5	> 117	> 117	–	–	–	–	–	–	–	–	10
Cc1ccc(NC(=O)c2nc[nH]c2C(=O)Nc2ccc(F)cc2)c(-c2cc(C)n[nH]2)c1 [compound 1]	–	2.5	–	3.5	–	–	–	–	–	–	–	–	–	–	–
Cc1ccc(NC(=O)c2ccccc2NC(=O)c2ccc(F)cc2)c(-c2ccsc2)c1 [13a, 2-(4-fluorobenzamido)-N-(4-methyl-2-(thiophen-3-yl)phenyl)benzamide]	–	> 116	–	> 116	> 116	> 116	–	–	–	–	–	–	–	–	–
